Source: US9522928B2, “Mannosylated compounds useful for the prevention and the treatment of infectious diseases” (UNIVERSITE DE STRASBOURG, priority 2011, dated 2016)

How the values were obtained:
DC-SIGN = target: T1, DC-SIGN (Homo sapiens, UniProt Q9NNX6); assay: DC-SIGN internalization in DCs (flow cytometry, confocal microscopy); format: cell-based; conditions: 100 μM
T1 construct: endogenous in cells; host or cells: human monocyte-derived dendritic cells (GM-CSF/IL-4 differentiated)
T1 sequence (Q9NNX6 1-404): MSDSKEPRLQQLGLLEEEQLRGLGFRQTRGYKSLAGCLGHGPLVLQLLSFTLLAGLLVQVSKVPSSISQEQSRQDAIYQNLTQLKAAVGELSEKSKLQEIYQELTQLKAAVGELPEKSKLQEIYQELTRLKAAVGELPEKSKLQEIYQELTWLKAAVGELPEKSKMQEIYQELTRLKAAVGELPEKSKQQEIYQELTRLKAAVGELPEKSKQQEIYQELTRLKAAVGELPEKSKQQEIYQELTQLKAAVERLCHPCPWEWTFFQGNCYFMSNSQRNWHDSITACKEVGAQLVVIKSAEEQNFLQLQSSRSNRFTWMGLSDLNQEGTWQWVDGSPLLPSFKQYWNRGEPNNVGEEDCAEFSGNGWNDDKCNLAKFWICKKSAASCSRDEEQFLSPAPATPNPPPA
Experimental: To visualize the effect on DC-SIGN, cells were either left untreated or exposed to TriMan (100 μM final) for 45 min at 37° C., fixed with 4% paraformaldehyde for 15 min at room temperature, washed, permeabilized with 0.1% Triton X-100 for 3 min at 20° C., washed and labeled with an anti-DC-SIGN primary monoclonal antibody clone 111H2 (Canard, et al., 2011), followed by a secondary FITC-labeled anti-mouse-IgG (Southern Biotech). Nuclei were labeled with DAPI. Slides were mounted and processed as above.
Moreover, expression of DC-SIGN was visualized with a fluorescently-labeled antibody by confocal fluorescence microscopy. In untreated cells, DC-SIGN was mostly located at the cell membrane, in agreement with previous reports (Engering, et al., 2002). Upon exposure to TriManC24, DC-SIGN was detected both at the cell membrane and within the cytoplasm. […] The effect of TriManC24 on DC-SIGN cellular localization was assessed by flow cytometry analyses of DCs, in the absence or presence of TriManC24.

HIV-1 X4 = HIV-1 X4 trans-infection of MAGI-CCR5 cells mediated by DCs; format: cell-based
Experimental: ManC1, […] (comparative) and compounds of the invention (ManC24, ManC17, TriManC24, TriDiManC24, TriManinsatC24 and ManinsatC24) were serially diluted in water. Human DCs (1×10^5 in 200 μl ) were pre-treated with different concentrations of compounds, or mannan (Sigma) or culture medium alone, in RPMI 1640 medium containing 10% FBS for 45 min at 37° C., prior infection with HIV-1 (100 ng of p24Gag) for 3 h. Excess free virus and molecules were removed by three washes. DCs were then cocultured with MAGI -CCR5 cells (1×10^5) at 37° C. plated in a 48-well plate. After two days, viral infection of MAGI-CCR5 cells was quantitated following beta-galactosidase assays and enumerating blue cells by light microscopy.
The IC50 were determined by serial dilution of each compound. The trans-infection assays were repeated a minimum of three times, and the IC50 determined using KaleidaGraph.
To investigate the ability of the compounds of the invention to inhibit HIV-1 trans infection, we chose to infect human DCs in order to best mimic in vivo conditions. […] This procedure allows precise quantification of HIV-1 replication in reporter MAGI-CCR5 cells by detection of beta-galactosidase activity. […] Upon viral entry leading to viral Tat expression and activation of the LTR, these cells permit quantification of HIV trans-infection after two days.

[1] = Hydrodynamic diameter of micelles (Zetasizer Nano ZS); format: physicochemical; conditions: in water at 0.5 mg/ml
Experimental: DiManinsatC24 was prepared according a procedure similar to that used for the preparation of TriDiManC24 except that: • pentacosanoic acid was replaced by 10,12-pentacosadiynoic acid, and • before the coupling with 10,12-pentacosadiynoic acid, the benzyl groups of compound 33 were replaced by acetyl group so as to provide compound 108 (as illustrated in FIG. 3E). ^1H NMR δ(ppm) (MeOD, 400 MHz) 4.87 (s, 3H), 4.73 (s, 3H), 3.64-3.50 (m, 14H), 3.46-3.20 (m, 76H), 2.97-2.93 (m, 6H), 2.33 (t, 6H, J=6.8 Hz), 2.09-1.96 (m, 6H), 1.08-1.05 (m, 32H), 0.66 (t, 3H, J=6.8 Hz). ^13C NMR δ (ppm) (MeOD, 100 MHz) 173.7, 168.8, 104.2, 101.2, 80.6, 80.4, 75.1, 74.7, 72.5, 72.2, 72.1, 71.9, 71.8, 71.7, 71.6, 71.4, 69.4, 69.1, 68.9, 68.7, 68.6, 68.0, 63.2, 63.1, 42.2, 37.0, 34.8, 33.7, 33.1, 30.8, 30.7, 30.6, 30.5, 30.4, 30.2, 29.5, 28.1, 27.0, 26.0, 23.7, 19.7, 14.4. IR (neat film, cm^−1): 3353, 2924, 1716, 1636, 1350, 1182, 1095, 1035, 1009, 837, 669. • Determination of critical micelle concentrations (CMCs) and size of particles. The hydrodynamic diameters of micelles of glycolipids were measured in water using a Zetasizer Nano ZS system (Malvern Instruments). The CMCs were measured using pyrene as an extrinsic fluorescent probe and were carried out as described (Perino et al., 2011). Briefly, a range of glycolipid samples were dissolved in water (1 ml), with concentrations ranging from 1.0 to 0.001 mg/ml. A stock solution of pyrene (1 mM) was prepared in dimethyl sulfoxyde and was added to each sample. Fluorescent emission of pyrene was measured at 25° C. using a Fluorolog spectrofluorometer (Jobin Yvon, Horiba). The intensities of fluorescence emission were determined at 374 nm (I374) and at 383 nm (I383), with an excitation at a 339 nm wavelength. The ratios I374/I383 were calculated and plotted against the glycolipid concentration. The CMC value was determined at the intersection of the two straight lines.

SMILES: CCCCCCCCCCCCCCCCCCCCCCCCC(=O)NC(COCCC(=O)NCCOCCOCCOCCOC1OC(CO)C(O)C(O)C1O)(COCCC(=O)NCCOCCOCCOCCOC1OC(CO)C(O)C(O)C1O)COCCC(=O)NCCOCCOCCOCCOC1OC(CO)C(O)C(O)C1O (stereo not drawn) [TriManC24]
- DC-SIGN receptors internalized (DC-SIGN): about 20%
- residual level of trans-infection (HIV-1 X4): 15%
- hydrodynamic diameter of micelles [1]: 39 nm
